Patent publication US4789681A, “Cytoprotective guanidine derivatives useful in ischemic diseases” (Italfarmaco S.p.A., priority 1985, dated 1988)

Experiments:
rat (cerebral ischemia) = experiment: In vivo activity in the rat: cerebral ischemia, EEG recovery; conditions: 3 mg/kg i.v., 10' before test
Procedure: The model described by Kramer (Kramer W., Tuynmann J. A.; Brain Research 6, 686 (1967)) has been used.
Two electrodes for the bipolar recording of EEG (occipito-cervical and cerebellar area) were applied to rats, anaesthetized with N2 O (70%) and O2 (30%), after i.v. tubocurarine treatment. Ischemia was induced by increasing the intracranial pressure in cisterna magna with artificial C.S.F. and for the duration of 1 minute. EEG was recorded 3' before ischemia, during the first 6 minutes of the recirculation and up to 30' after ischemia. The time for a complete EEG recovering was measured.
The compounds were administered i.v. 10' before test.

rat (cardiac ischemia) = experiment: In vivo activity in the rat: cardiac ischemia and reperfusion by ligation of the left coronary artery; conditions: iv, 3 mg/kg, 10' to 30' before ligation
Description: It has been used a cardiac ischemia and reperfusion model, on the anaesthetized rat, by ligation of the left coronary artery as described by C. […] In said model, after the ischemic state induced by the coronary ligation, the reperfusion of the cardiac tissue follows the release of the ligation itself. In said situation tachycardias, extrasystoles ventricular fibrillations are observed, followed, in most cases, by the animal's death.
This applies in both situation: hypoxia and reperfusion.

Structure (SMILES) | EEG recovery time (rat (cerebral ischemia)) [s] | further results
COC(=O)[C@H](N)c1ccc(NC2=NCCN2)cc1 (single isomer, unassigned) [10a(R), Methyl (R) or (S) 2-amino-2-(4'-imidazolinyl-amino-phenilacetate] | 62 ± 8 | 
CN=C(N)NCCC[C@@H](N)C(=O)OC [2b(R), (R)-N^G -methyl-arginine methylester] |  | % effects (with respect to controls in the same situation) on death-rate (rat (cardiac ischemia)): 10%; % effects (with respect to controls in the same situation) on fibrillations (rat (cardiac ischemia)): 50%; % effects (with respect to controls in the same situation) on tachycardia V. (rat (cardiac ischemia)): 60%
COC(=O)[C@H](N)CCNNC(=N)N [4a(R), methyl-(R)-2-amino-4-guanidylamino-butyrrate] | 58 ± 7 | 
COC(=O)[C@H](N)[C@H]1CC[C@@H](NC(=N)N)CC1 [7a(R), Methyl (R) (1',4' cis or trans)-2-amino-2-(4'-guanidinocyclohexyl)-acetate] | 49 ± 6 | 
COC(=O)[C@@H](N)[C@H]1CC[C@@H](NC(=N)N)CC1 [7a(S), Methyl (S) (1',4' cis or trans)-2-amino-2-(4'-guanidinocyclohexyl)-acetate] | 43 ± 5 | 
COC(=O)[C@H](N)CCCNC(=N)N [D.A.M., Darginine methylester, reference compound] | 45 ± 6 | 
COC(=O)[C@@H](N)CCCNC(=N)N [L.A.M., Larginine methylester, reference compound] | 61 ± 8 | 
